{"source": "patent US20250057858A1", "about": "“COMPOSITIONS AND METHODS FOR TREATING NEUROLOGICAL DISORDERS WITH COMBINATION PRODUCTS” (Neurotech International Ltd, priority 2021, published 2025)", "key": {"[1]": {"system": "cells in an excitotoxic cell injury paradigm", "assay": "Cell death in an excitotoxic cell injury paradigm", "format": "cell-based", "experimental": "Neuronal viability was quantified using MTT [3-(4,5-dimethylthiazol-2-yl-)-2,5-diphenyl-2H-tetrazolium bromide; Sigma]. NTI164 treated celled were able to increase the number of “healthy” cells under basal conditions following short term glutamate exposure. Cellular excitotoxicity was achieved via glutamate activation (3 mM). NTI164 was able to stimulate cell growth after short term glutamate induced “insult”."}, "[2]": {"system": "COX-2", "assay": "COX-2 immunohistochemistry in human derived microglial cells (Example 4)", "format": "cell-based", "settings": "for COX-2 expression (Avg +/− SEM): 2 μg/ml, N=9", "experimental": "Immunohistochemistry (Protein Level) Assay: Cells were fixed for 10 min with 4% paraformaldehyde (PFA) in PBS. After 3×5 minutes washing with PBS, cells were incubated with primary antibodies (anti-COX2) 1:1000 overnight at 4° C., and after 3×5 minutes washing in PBS, cells were then incubated in appropriate fluorescent secondary antibody 1:250 (Invitrogen) for 2 hours at room temperature. After a final wash, as previous, cells nuclei were stained with DAPI in the mounting media. Photomicrographs were taken of the cells in three fields of view per well from duplicate wells and analysed using Fiji for area coverage of each marker.\n(§1) 500 mg of dried plant material of NTI164 is suspended in 20 ml of absolute ethanol (using 50 ml blue top falcon tubes appropriate for centrifugation) and stirred/shaken vigorously for 60 seconds. The tubes are then placed in a sonication bath for 10 mins at 35-40 C. Upon completion of the sonication samples are then placed in a tray shaker (200 rpm) for 30 minutes at room temperature. Once completed the samples are then centrifuged at 4400 rpm for 5 minutes. The supernatant is collected for testing and development.\nUnits used to describe treatments for test products and concentrations for NTI164. • a. 1/1000 dilution of extract—10 µL (stock material is NTI164—10 µL, which equates to 2 μg/ml of CBDA) • b. 1/3000 dilution of extract—3 µL (stock material is NTI164—3 µL, which equates to […] of CBDA) • c. 1/10000 dilution of extract—1 µL (stock material is NTI164—1 µL, which equates to 0.1 μg/ml of CBDA)\nFor the CBD sample, a pure standard (in powder form) was used. CBD 98% isolate was purchased as a reference standard from LGC Standards (London UK) (CAS No. 13956-29-1). The CBD standard reference was prepared at concentration of 1 mg/ml (in acetonitrile). CBD dilutions were made in acetonitrile as follows: 2 μg/ml; 6 μg/ml; and 0.1 μg/ml.\nThe final concentration of NTI164 (CBDA equivalent) and CBD that was used in these studies was 2 μg/ml."}, "[3]": {"system": "IL-12", "assay": "Multiplex cytokine assay, IL-12, microglial cells (Example 4)", "format": "cell-based, human", "settings": "2 μg/ml", "experimental": "(§2) Multiplex Cytokine/Chemokine Assay: Microglia media harvested following treatment initiation was centrifuged briefly to remove particulates (300 g for 10 min). Cytokine and chemokine levels in the microglial media were measured using a Bio-Plex 200 with a 96-well magnetic plate assay according to the manufacturer's instructions (Bio-Rad). Cytokines and chemokines measured included IL-1α, IL-1β, IL-2, IL-6, IL-10, IL-12 (p70), IL-13, G-CSF, GM-CSF, IFNγ, TNFα, CXCL1 (KC), CCL2 (MCP-1), and CCL5 (RANTES). All samples were run in duplicate and data were analyzed with the Bio-Plex Manager software.\nas §1\n(§3) Units used to describe treatments for test products and concentrations for NTI164. • a. 1/1000 dilution of extract—10 µL (stock material is NTI164—10 µL, which equates to 2 μg/ml of CBDA) • b. […]"}, "[4]": {"system": "TNF-alpha", "assay": "Multiplex cytokine assay, TNF-alpha, microglial cells (Example 4)", "format": "cell-based, human", "settings": "2 μg/ml", "experimental": "as §2, §1, §3"}, "[5]": {"system": "COX-2", "assay": "COX-2 protein, NTI164 plus prednisone (Example 8)", "format": "cell-based", "settings": "PDN 5 uM; NTI164 7.5 ug/ml; Interleukin & Interferon activation =1", "method": "Cells were fixed for 10 min with 4% paraformaldehyde (PFA) in PBS. After 3×5 minutes washing with PBS, cells were incubated with primary antibodies. (anti-COX2) 1:1000 overnight at 4° C., and after 3×5 minutes washing in PBS, cells were then incubated in appropriate fluorescent secondary antibody 1:250 (Invitrogen) for 2 hours at room temperature. After a final wash, as previous, cells nuclei were stained with DAPI in the mounting media. Photomicrographs were taken of the cells in three fields of view per well from duplicate wells and analysed using Fiji for area coverage of each marker.\nTreatment groups include: • (1) Control: PBS Buffer • (2) Positive control: Inflammatory stimulation by Interferon gamma and Interleukin-1B activation Prednisone (PDN) concentration 5 uM • (3) Combination therapy: Prednisone (PDN) 5 uM+NTI164 concentration 7.5ug/ml\nResult Analysis: Calculated as % reduction in inflammation, PDN versus Combination therapy (prednisone 5 uM+NTI164 concentration 7.5ug/ml). Student's t-test was used for statistical analysis."}, "[6]": {"system": "TNFα", "assay": "TNFα in microglial culture media, NTI164 plus psylocibin (Example 9)", "format": "cell-based", "settings": "PBS Control 1.00, Positive activation I&I 10.67", "experimental": "Microglia media harvested following treatment initiation was centrifuged briefly to remove particulates (300 g for 10 min). The level of TNFα in the microglial culture media was measured using a Bio-Plex 200 with a 96-well magnetic plate assay according to the manufacturer's instructions (Bio-Rad). The samples were run in duplicate that were averaged for analysis. At least three samples per group were run."}, "[7]": {"settings": "exposure 1 hour after inflammatory insult"}, "[8]": {"settings": "exposure 1 hour prior to inflammatory insult"}, "[9]": {"settings": "Interleukin and Interferon activation"}}, "data": [{"compound": "C=C(C)[C@@H]1CCC(C)=C[C@H]1c1c(O)cc(CCCCC)cc1O", "note": "[CBD, cannabidiol]", "values": [{"measurement": "cell death / toxicity", "setting": "[1]", "result": "toxic"}, {"measurement": "P, positive control vs treatment (COX-2)", "setting": "[2]; [7]", "result": "P = 0.0566"}, {"measurement": "COX-2 expression (Avg +/− SEM)", "setting": "[2]; [7]", "result": "76.32 +/− 7.95 (SEM)"}, {"measurement": "P, positive control vs treatment (COX-2)", "setting": "[2]; [8]", "result": "P = 0.3237"}, {"measurement": "COX-2 expression (Avg +/− SEM)", "setting": "[2]; [8]", "result": "84.82 +/− 7.65 (SEM)"}, {"measurement": "Statistical Significance Reduction Compared to Control Alone (P), IL-12", "setting": "[3]", "result": "= 0.008"}, {"measurement": "IL-12, Average", "setting": "[3]; [9]", "result": 84.40}, {"measurement": "Statistical Significance Reduction Compared to Control Alone (P), TNF-alpha", "setting": "[4]", "result": "= 0.0005"}, {"measurement": "TNF-alpha, Average", "setting": "[4]; [9]", "result": 71.13}]}, {"compound": "C[C@]12C=CC(=O)C=C1CC[C@@H]1[C@@H]2C(=O)C[C@@]2(C)[C@H]1CC[C@]2(O)C(=O)CO", "note": "[PDN, Prednisone]", "values": [{"measurement": "COX-2 Protein", "setting": "[5]", "result": 0.888}]}, {"compound": "CN(C)CCc1c[nH]c2cccc(OP(=O)(O)O)c12", "note": "[SubP (Psylocibin), Psylocibin]", "values": [{"measurement": "TNF-ALPHA ASSESSMENTS RESULTS", "setting": "[6]; 1 ug/ml", "result": 4.87}, {"measurement": "TNF-ALPHA ASSESSMENTS RESULTS", "setting": "[6]; 5 ug/ml", "result": 9.17}]}]}
